Consider four molecules from paper PMC3480357, “Fragment-Hopping-Based Discovery of a Novel Chemical Series of Proto-Oncogene PIM-1 Kinase Inhibitors” (PLoS ONE, 2012).

The target in one data set is PIM-3 (Homo sapiens, UniProt Q86V86). In words: PIM-3 kinase ADP Hunter Plus assay. The class given is biochemical. The settings on record: 100 µM ATP. The procedure: Kinase activity was measured with the commercial ADP Hunter™ Plus assay (DiscoveRx Ref. #33-016), a homogeneous assay measuring ADP accumulation, as a universal product of kinase activity. The assay was conducted following the manufacturer’s recommendations and adapting the protein and substrate concentrations for optimal conditions. The kinase assay buffer was 15 mM HEPES, pH 7.4, 20 mM NaCl, 1 mM EGTA, 0.02% Tween-20, 10 mM MgCl2 and 0.1 mg/ml BGG (bovine γ-globulin). All PIM kinase assays were performed with 100 µM PIMtide ([…]) as the peptide substrate and 100 µM ATP. The protein concentrations were 50, 350 and 500 ng/µl for PIM-1, 2 and 3, respectively. To calculate the IC50 of the ETP-compounds, serial 1∶5 dilutions were prepared and the reaction was started with the addition of ATP. The reaction was incubated for 1 h at 25°C. Reagents A and B (DiscoveRx) were sequentially added to the wells, and the plates were incubated for 30 min at 37°C. Fluorescence counts were read in a Victor instrument (Perkin Elmer) with the recommended settings (544 and 580 nm as the excitation and emission wavelengths, respectively). Values were plotted against the inhibitor concentrations and fit to a sigmoid dose–response curve using GraphPad software.

For a further data set, the target named is PIM-2 (Homo sapiens, UniProt Q9P1W9). In words: PIM-2 kinase ADP Hunter Plus assay. Type of data set: biochemical. The settings on record: 100 µM ATP.
In a further data set the target is T1, MST1 (Homo sapiens, UniProt Q13043).
T1 sequence (Q13043 1-487): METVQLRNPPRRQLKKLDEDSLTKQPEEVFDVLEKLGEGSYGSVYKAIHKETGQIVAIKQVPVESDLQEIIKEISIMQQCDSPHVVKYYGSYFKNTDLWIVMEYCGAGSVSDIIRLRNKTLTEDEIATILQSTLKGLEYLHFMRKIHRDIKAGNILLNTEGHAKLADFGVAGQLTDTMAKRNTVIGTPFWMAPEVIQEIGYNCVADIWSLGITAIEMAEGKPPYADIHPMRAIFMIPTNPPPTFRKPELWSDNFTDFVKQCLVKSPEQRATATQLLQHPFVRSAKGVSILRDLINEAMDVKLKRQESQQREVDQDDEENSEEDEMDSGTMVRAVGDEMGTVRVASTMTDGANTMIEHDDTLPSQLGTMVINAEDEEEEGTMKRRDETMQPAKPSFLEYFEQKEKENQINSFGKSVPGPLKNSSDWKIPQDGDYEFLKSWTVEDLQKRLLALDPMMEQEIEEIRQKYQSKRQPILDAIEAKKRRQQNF
The experiment in a line: ProQinase kinase panel, % inhibition at fixed concentration. Type of data set: biochemical. To be noted: for inhibition at 10 µM: inhibitor at 10 µM. As for the experimental part: (§1) Once compounds 7 and 8 were synthesized, a pairwise comparison was performed to strictly evaluate the real impact of this fragment-hopping where imidazopyridazine is replaced by triazolopyridine.

For data set [1], the target named is T2, SGK1 (Homo sapiens, UniProt O00141).
T2 sequence (O00141 1-431): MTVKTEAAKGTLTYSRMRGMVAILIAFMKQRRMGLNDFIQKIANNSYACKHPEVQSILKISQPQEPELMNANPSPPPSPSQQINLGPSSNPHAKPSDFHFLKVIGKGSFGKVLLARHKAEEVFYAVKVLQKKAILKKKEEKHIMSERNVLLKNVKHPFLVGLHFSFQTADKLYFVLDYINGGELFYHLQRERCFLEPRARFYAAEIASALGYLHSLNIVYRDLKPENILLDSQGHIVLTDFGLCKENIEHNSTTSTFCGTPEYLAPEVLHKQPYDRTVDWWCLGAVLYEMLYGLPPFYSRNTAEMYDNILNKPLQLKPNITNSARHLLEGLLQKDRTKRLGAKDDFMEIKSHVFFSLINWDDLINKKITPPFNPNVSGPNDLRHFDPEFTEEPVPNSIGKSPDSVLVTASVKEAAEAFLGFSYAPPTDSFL
The description is as above. The class given is biochemical. The settings on record: for inhibition at 10 µM: inhibitor at 10 µM. As for the experimental part:
as §1

The target in the next data set is FAK (Homo sapiens, UniProt Q05397). The description is as above. Type of data set: biochemical.
In another data set the target is KIT (Homo sapiens, UniProt P10721). The data set is described as above. Type of data set: biochemical.
Data set [2] in a line: Metabolic stability in liver microsomes (Rat). The class given is in vitro ADME. The settings on record: 1 µM, 15 minutes. In general terms: Liver microsomes are a subcellular fraction often used to study metabolism.
The target in the next data set is MEK1 (Homo sapiens, UniProt Q02750). The experiment in a line: ProQinase kinase panel, % inhibition at fixed concentration. Type of data set: biochemical. To be noted: read-out: MEK1 percentage of inhibition. As for the experimental part:
(§2) Off-target selectivity profiling was also performed for compounds 3 and 8 against a panel of 20 kinases (Table 3). […] When taking the differences in screening concentrations into consideration, we can only make unequivocal conclusions about FLT3 (based on the IC50 determination). […] The slight improvement observed for the remainder of the screened targets was likely due to the difference in concentrations.

Another data set addresses IKK-β (Homo sapiens, UniProt O14920). Described as above. Type of data set: biochemical. To be noted: average of two data points, read-out: IKK-β percentage of inhibition. As for the experimental part:
as §2

Data set [3] can be described thus: Metabolic stability in liver microsomes (Mouse). The class given is in vitro ADME. The settings on record: 1 µM, 15 minutes.
A short description of the next data set: PAMPA passive diffusion. The settings on record: LC/MS/MS after 4 hours of incubation at 2 µM; for Papp at 4 h, 2 µM: PAMPA, read-out: PAMPA Pe. The class given is in vitro ADME. The procedure: Therefore, to obtain more detailed information on this critical point, preliminary in vitro ADME profiling was performed for molecule 3. This profiling was mainly focused on hERG activity and on pharmacokinetics parameters, such as metabolic stability and PAMPA (an in vitro model for passive diffusion).
In general terms: PAMPA measures passive passage across an artificial lipid membrane.

Data set [4] can be described thus: Metabolic stability in liver microsomes (Human). Type of data set: in vitro ADME. To be noted: for Met. Stab. (Human), percentage of the original compound that remained: 1 µM, liver microsomes, 15 minutes.
Data set [5] addresses T2, SGK1. Details: method as in PMID 21051136. To be noted: 10 µM; average of two data points; cited from earlier work.
Where [6] appears, read: compound 7 vs compound 1, 10 µM.
[7] abbreviates: average of two data points, read-out: MST1 percentage of inhibition.
Setting [8] is: average of two data points, read-out: SGK1 percentage of inhibition.
[9] abbreviates: compound 8 (5 µM) versus compound 3 (10 µM).
[10] abbreviates: compound 8 (5 µM) vs compound 3 (10 µM).
Setting [11] is: hit definition % inhibition > 40, ligand at 5µM.

Where only a bound is given, the exact number is not on record here.

FAK, sequence (Q05397 whole entry, species assumed): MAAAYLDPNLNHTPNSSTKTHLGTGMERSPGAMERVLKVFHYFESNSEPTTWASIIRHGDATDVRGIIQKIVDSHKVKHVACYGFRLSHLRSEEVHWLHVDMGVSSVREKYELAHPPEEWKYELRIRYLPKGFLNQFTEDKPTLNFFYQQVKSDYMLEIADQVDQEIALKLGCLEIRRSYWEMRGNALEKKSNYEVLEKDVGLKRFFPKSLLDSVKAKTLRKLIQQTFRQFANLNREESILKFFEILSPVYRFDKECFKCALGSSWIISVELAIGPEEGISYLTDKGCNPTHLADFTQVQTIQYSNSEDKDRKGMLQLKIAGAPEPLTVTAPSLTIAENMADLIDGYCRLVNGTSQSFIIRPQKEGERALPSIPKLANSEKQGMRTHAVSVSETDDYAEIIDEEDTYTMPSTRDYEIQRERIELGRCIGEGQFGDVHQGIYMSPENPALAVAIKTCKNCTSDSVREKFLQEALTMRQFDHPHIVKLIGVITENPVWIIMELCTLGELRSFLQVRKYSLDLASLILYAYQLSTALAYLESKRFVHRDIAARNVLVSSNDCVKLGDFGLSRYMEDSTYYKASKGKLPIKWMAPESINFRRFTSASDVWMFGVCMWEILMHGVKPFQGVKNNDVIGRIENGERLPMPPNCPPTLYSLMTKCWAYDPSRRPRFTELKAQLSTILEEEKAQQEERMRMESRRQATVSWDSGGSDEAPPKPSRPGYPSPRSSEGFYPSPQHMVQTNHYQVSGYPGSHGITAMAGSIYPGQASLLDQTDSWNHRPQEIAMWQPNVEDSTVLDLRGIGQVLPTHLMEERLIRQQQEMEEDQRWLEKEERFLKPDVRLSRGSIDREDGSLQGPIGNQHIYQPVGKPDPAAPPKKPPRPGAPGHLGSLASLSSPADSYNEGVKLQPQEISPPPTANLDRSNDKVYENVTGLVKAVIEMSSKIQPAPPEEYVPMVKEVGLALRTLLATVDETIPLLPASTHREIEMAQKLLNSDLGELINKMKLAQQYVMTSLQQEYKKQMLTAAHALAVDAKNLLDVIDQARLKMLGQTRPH
KIT, sequence (P10721 26-976, species assumed): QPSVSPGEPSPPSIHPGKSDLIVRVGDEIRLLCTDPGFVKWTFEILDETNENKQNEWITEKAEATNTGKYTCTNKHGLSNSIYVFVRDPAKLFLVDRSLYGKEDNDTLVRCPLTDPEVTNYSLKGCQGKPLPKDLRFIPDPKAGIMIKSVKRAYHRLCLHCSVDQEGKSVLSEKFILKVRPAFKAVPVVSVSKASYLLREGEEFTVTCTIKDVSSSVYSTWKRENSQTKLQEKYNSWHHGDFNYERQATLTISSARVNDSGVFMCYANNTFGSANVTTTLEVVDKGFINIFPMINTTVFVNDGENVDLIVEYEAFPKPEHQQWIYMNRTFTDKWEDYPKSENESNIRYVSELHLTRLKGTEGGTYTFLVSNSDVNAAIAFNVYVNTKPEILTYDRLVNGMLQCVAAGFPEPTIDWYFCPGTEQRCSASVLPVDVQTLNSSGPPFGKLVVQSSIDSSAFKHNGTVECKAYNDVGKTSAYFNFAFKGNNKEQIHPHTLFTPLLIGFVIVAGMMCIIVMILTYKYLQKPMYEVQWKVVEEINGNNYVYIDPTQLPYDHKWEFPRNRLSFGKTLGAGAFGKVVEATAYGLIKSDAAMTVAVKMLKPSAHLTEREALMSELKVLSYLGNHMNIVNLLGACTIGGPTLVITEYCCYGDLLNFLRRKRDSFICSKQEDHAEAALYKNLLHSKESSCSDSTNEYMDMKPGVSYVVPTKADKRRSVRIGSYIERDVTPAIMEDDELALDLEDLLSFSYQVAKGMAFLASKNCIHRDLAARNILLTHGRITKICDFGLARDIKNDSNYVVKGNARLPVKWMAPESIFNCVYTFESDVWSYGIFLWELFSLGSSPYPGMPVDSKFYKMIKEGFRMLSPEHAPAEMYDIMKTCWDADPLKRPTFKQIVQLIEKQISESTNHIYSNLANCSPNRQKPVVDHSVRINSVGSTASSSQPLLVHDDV
IKK-β, sequence (O14920 whole entry, species assumed): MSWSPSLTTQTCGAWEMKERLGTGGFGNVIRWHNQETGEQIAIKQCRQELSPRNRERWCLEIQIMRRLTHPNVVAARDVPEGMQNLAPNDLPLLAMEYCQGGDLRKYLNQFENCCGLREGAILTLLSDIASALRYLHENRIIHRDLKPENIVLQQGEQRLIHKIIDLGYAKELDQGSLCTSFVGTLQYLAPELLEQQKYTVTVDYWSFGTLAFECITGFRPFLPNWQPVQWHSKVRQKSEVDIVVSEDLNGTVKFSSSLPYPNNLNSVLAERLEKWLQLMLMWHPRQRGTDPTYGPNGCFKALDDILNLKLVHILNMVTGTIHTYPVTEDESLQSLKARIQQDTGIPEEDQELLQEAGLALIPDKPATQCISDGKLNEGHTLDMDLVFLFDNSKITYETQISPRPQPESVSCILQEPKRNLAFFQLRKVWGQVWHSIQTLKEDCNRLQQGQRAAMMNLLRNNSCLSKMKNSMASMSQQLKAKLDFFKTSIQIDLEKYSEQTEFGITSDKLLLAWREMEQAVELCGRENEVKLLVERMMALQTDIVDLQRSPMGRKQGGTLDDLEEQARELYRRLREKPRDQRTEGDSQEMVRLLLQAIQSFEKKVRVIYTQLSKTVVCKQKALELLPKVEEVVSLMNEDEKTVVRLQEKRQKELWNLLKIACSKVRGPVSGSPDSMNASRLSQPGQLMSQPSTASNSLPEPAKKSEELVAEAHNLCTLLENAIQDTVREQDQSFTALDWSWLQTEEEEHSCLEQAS
PIM-2, sequence (Q9P1W9 whole entry): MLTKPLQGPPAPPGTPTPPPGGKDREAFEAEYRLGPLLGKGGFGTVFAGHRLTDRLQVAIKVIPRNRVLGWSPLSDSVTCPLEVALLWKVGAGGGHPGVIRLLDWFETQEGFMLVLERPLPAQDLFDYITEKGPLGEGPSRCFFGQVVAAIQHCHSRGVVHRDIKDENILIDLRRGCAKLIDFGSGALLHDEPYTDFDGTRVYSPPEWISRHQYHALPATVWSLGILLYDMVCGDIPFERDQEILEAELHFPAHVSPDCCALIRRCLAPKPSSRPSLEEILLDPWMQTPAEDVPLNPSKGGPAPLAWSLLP
MEK1, sequence (Q02750 whole entry, species assumed): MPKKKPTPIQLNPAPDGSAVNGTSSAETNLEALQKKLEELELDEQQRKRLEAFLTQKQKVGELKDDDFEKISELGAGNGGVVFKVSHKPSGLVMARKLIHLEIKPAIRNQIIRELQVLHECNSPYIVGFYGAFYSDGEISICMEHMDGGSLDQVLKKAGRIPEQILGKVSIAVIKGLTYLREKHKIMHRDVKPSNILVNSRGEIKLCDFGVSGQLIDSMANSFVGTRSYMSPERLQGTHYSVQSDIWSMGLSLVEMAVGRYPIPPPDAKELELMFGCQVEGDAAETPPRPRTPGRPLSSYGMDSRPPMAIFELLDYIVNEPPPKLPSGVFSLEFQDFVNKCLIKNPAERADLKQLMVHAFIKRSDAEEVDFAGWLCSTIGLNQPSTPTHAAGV

The IC50 is the concentration that inhibits the measured activity by half. Usually inhibition stands for the change of the read-out against control, counted positive when it falls. As to `Oc1ccc(-n2nnc3ccc(NCc4ccc(F)cc4)nc32)cc1` [Compound 7, 4-[5-(4-Fluoro-benzylamino)-[1], [2], [3]triazolo[4,5-b]pyridin-3-yl]-phenol], the IC50 was determined as 51 nM at PIM-3 and 333 nM on PIM-2. Moreover, the “MST1 improvement in percentage of inhibition” value at MST1 (setting [6]) is listed as “c (This designation indicates that the improvement in percentage of inhibition was equal or greater than 50%)”. Besides, the inhibition at 10 µM turned out to be 29% on MST1 (setting [7]); 12% at SGK1 [1] (setting [8]); 38% at FAK (inhibitor at 10 µM, average of two data points, read-out: FAK percentage of inhibition); 51% on KIT (inhibitor at 10 µM, average of two data points, read-out: KIT percentage of inhibition). Further, the “SGK1 improvement in percentage of inhibition” value on SGK1 [1] (setting [6]) is “c (This designation indicates that the improvement in percentage of inhibition was equal or greater than 50%)”. For the same molecule, the “KIT improvement in percentage of inhibition” value at KIT (setting [6]) is “b (This designation indicates that the improvement in percentage of inhibition was equal or greater than 25%)”. Also, the “KIT experimental hit classification” value at KIT (hit definition % inhibition > 50, ligand at 10µM) is “hit”.

On to `CN1CCC(CNc2ccc3ncc(-c4cccc(OC(F)(F)F)c4)n3n2)CC1` [Compound 3, reference compound], for which, on PIM-3, the IC50 came to 46 nM. For the same molecule, in data set [2], the “Met. Stab. (Rat), percentage of the original compound that remained” value is given as 23%. In addition, the inhibition at 10 µM worked out at 11% on MEK1, 0% at IKK-β (inhibitor at 10 µM), 60% on MST1 (setting [7]) and 55% at SGK1 [1] (setting [8]). The “Met. Stab. (Mouse), percentage of the original compound that remained” value in data set [3] came to 5%. Also, the Papp at 4 h, 2 µM in the data set “PAMPA passive diffusion” is 0.0015 ×10⁻⁶ cm/s. Also, in [4], the “Met. Stab. (Human), percentage of the original compound that remained” value is on record as 31%.

For `CN1CCC(CNc2ccc3nnn(-c4cccc(OC(F)(F)F)c4)c3n2)CC1` [Compound 8, (1-Methyl-piperidin-4-ylmethyl)-[3-(3-trifluoromethoxy-phenyl)-3H-[1], [2], [3]triazolo[4,5-b]pyridin-5-yl]-amine], the IC50 on PIM-3 is 724 nM; at PIM-2, 4950 nM. The “Met. Stab. (Rat), percentage of the original compound that remained” value in data set [2] was 35%. For the same molecule, the inhibition at 5 µM stood at 33% on MEK1 (inhibitor at 5 µM, average of two data points); 3% at IKK-β (inhibitor at 5 µM); 20% at MST1 (inhibitor at 5 µM, average of two data points, read-out: MST1 percentage of inhibition); 0% on SGK1 [1] (inhibitor at 5 µM, average of two data points, read-out: SGK1 percentage of inhibition); 34% on FAK (inhibitor at 5 µM, average of two data points, read-out: FAK percentage of inhibition); 44% on KIT (inhibitor at 5 µM, average of two data points, read-out: KIT percentage of inhibition). The “SGK1 increment in percentage of inhibition” value on SGK1 [1] (setting [9]) is recorded as over 50%. Also, the “SGK1 improvement in percentage of inhibition” value at SGK1 [1] (setting [10]) is listed as “c (This designation indicates that the improvement in percentage of inhibition was greater than 50%)”. Besides, the “Met. Stab. (Mouse), percentage of the original compound that remained” value in data set [3] is 27%. Also, at FAK (setting [11]), the “FAK experimental hit classification” value is “not a FAK hit”. Besides, the “PAMPA Pe” value in the data set “PAMPA passive diffusion” was 0.74 10^-6 cm/s. Further, the Papp at 4 h, 2 µM in “PAMPA passive diffusion” is about 1 ×10⁻⁶ cm/s. In addition, the “KIT increment in percentage of inhibition” value on KIT (setting [9]) was over 50%. In addition, on KIT (setting [10]), the “KIT improvement in percentage of inhibition” value is “c (This designation indicates that the improvement in percentage of inhibition was greater than 50%)”. For the same molecule, at KIT (setting [11]), the “KIT experimental hit classification” value is “hit”. Moreover, the “Met. Stab. (Human), percentage of the original compound that remained” value in [4] was determined as 77%. The “increase in metabolic stability in human liver microsomes” value in [4] (molecule 8 vs compound 3) is on record as “more than 45%”.

On to `Oc1ccc(-c2cnc3ccc(NCc4ccc(F)cc4)nn23)cc1` [Compound 1], for which the “SGK1 percentage of inhibition” value on SGK1 [5] is reported as 73%.
